This is an account of results in patent US8143374B2, “Polypeptide derivatives of parathyroid hormone (PTH)” (The General Hospital Corporation, priority 2006, dated 2012).

Data set [1] in a line: Circular dichroism spectroscopy, helical residues per peptide chain. It counts as physicochemical. The conditions noted are these: calculated from [θ]222. The method, then:
Circular Dichroism—CD spectra were obtained on a JASCO J-600 spectropolarimeter at 20° C. Four spectra were averaged and the data smoothed by the JASCO software. The instrument was calibrated with ammonium (+)-10-camphorsulfonate. Peptide concentrations were verified from the absorption at 280 nm, using an extinction coefficient of 5700 M^−1 for the single tryptophan. Data are expressed as the number of helical residues per peptide chain, as calculated from −[θ]222×30/28,000, where [θ]222 is the mean residue elipticity ([θ]) at 222 nm, as was described previously (Barbier, J. R., et al. (2005) J Biol Chem. 280:23771-23777).

The next data set has as its target T1, PTHR-delNt (Homo sapiens, UniProt Q03431, DEL24-181).
T1 construct: expressed in transfected cells; host or cells: COS-7 cells, transient co-transfection; membranes prepared
T1 sequence (Q03431 with tags, fused parts or gaps DEL24-181): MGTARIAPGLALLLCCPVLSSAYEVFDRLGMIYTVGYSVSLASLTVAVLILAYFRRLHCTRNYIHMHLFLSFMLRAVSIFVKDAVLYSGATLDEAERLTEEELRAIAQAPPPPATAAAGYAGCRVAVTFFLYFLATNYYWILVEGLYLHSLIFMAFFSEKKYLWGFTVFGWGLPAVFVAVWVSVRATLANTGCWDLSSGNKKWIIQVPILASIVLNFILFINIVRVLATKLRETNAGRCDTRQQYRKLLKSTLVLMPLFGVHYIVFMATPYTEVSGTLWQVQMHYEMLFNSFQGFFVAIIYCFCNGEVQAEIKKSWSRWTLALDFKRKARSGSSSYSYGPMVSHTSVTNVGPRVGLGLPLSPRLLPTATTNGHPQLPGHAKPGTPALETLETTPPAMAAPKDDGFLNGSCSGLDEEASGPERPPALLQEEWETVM
Nature of the data set: Competition binding in COS-7 cell membranes with 125I-[Aib1,3,M]PTH(1-15)NH2 tracer. Particulars: for IC50: COS-7 membranes cotransfected with negative-dominant Gαs, read-out: PTHR-delNT (COS-7) IC50. As for the experimental part: PTHR-delNt is a derivative of the human PTHR that is deleted for most (Ala^24-Arg^181) of the amino-terminal extracellular domain (Shimizu, M., et al. (2001) Endocrinology 142:3068-3074). This PTHR construct was expressed in COS-7 cells via transient DNA transfection. For cAMP assays, the cells were transfected in 24-well plates using 0.2 μg of plasmid DNA and 0.6 μl of Fugene-6 reagent (Roche Diagnostics, Indianapolis Ind.) per well, and assays were performed on the intact cells three to four days after transfection. For binding assays, cell membranes were prepared from transfected COS-7 cells. To increase the maximal binding of ^125I-[Aib^1,3,M]PTH(1-15)NH2 to PTHR-delNt in these membranes, the cells were cotransfected with a negative dominant mutant Gαs protein (Gαs^ND). This mutant Gαs subunit is thought to couple to cognate receptors, and thus stabilize high affinity receptor conformations, more efficiently than does wild-type Gαs, without increasing basal cAMP levels (Berlot, C. H. (2002) J Biol Chem 277:21080-5). A precursor of this mutant Gαs, Gαs(α3β5), was recently used to increase binding of ^125I-[Aib^1,3,M]PTH(1-15)NH2 to PTHR-delNt in COS-7 cell membranes (Dean, T., (2006) Mol Endocrinol 20:931-942). Gαs^ND, which contains the same five amino acid replacement of corresponding Gαi residues in the α3β5 loop as Gαs(α3β5), plus the point mutations of Gly^226 to Ala, which increases affinity for Gβ/γ, and Ala^366 to Ser, which decreases affinity for GDP, yields approximately two-fold higher levels of specific binding of ^125I-[Aib^1,3,M]PTH(1-15)NH2 than does Gαs(α3β5) (data not shown). For the current membrane preparations, COS-7 cells were co-transfected in six-well plates using 1 μg of each plasmid DNA encoding PTHR-delNt and Gαs^ND, and 6 μl of Fugene-6 reagent (Roche Diagnostics, Indianapolis Ind.) per well. Cells were harvested three days after transfection, and membranes were prepared as described (Dean, T., et al. (2006) Mol Endocrinol 20:931-942).
Receptor binding—Binding to the wild-type human PTHR in intact HKRK-B7 cells and ROS 17/2.8 cells was assessed using ^125I-PTH(1-34) as a tracer radioligand, as described (Shimizu, M., (2001) Endocrinology 142:3068-3074). In brief, the cells in 24-well plates (about 500,000 cells per well) were incubated in binding buffer containing radioligand (about 100,000 cpm per well) with or without unlabeled peptide ligand (3×10^−9 to 1×10^−5 M) for four hours at 15° C. The binding mixture was then removed by aspiration, the cells were rinsed three times with binding buffer, lysed in 1 M NaOH, and the entire lysate was counted for gamma-irradiation in a gamma counter. Binding to PTHR-delNt in COS-7 cell membranes was assessed in 96-well, vacuum filtration plates (Multiscreen-Durapore HV, […] membranes, Millipore Corp., Millford, Mass.) using ^125I-[Aib^1,3,M]PTH(1-15)NH2 as a tracer radioligand, as described (Dean, T., (2006) Mol Endocrinol 20:931-942). In brief, cell membranes (20 μg/well) were incubated in membrane binding buffer containing radioligand (30,000 cpm/well) with or without unlabeled peptide ligand (3×10^−9 to 1×10^−5 M) for 90 minutes at 21° C. The plates were then subject to rapid vacuum filtration, the filters were washed once with buffer, detached from the plate and counted for gamma-irradiation in a gamma counter. Non-specific binding was defined as the binding observed in the presence of 1×10^−6 M PTH(1-31)NH2 for HKRK-B7 and ROS 17/2.8 cells, and 1×10^−6 M [Aib^1,3,M]PTH(1-15)NH2 for PTHR-delNt. Specifically bound radioactivity was calculated as a percentage of the radioactivity specifically bound in the absence of competing ligand. […]

Setting [2] is: [Ala1,Arg19]hPTH(1-31)NH2 analogs.

Read-outs that look alike come from different tables or passages of the source. Where a SMILES comes first, the peptide text is derived from it. [ ]: non-standard residue; d: D form. Cha = N[C@@H](CC1CCCCC1)C(=O)O; Nle = CCCC[C@H](N)C(=O)O

By IC50 is commonly meant the point on the concentration scale where inhibition reaches its midpoint. As for `CCCC[C@H](NC(=O)[C@H](CCC(=O)O)NC(=O)[C@H](CCSC)NC(=O)[C@H](CO)NC(=O)[C@H](CC(N)=O)NC(=O)[C@H](CC(C)C)NC(=O)[C@H](Cc1c[nH]cn1)NC(=O)[C@H](CCCCN)NC(=O)CNC(=O)[C@H](CC(C)C)NC(=O)[C@H](CC(N)=O)NC(=O)[C@H](Cc1c[nH]cn1)NC(=O)[C@H](CCSC)NC(=O)[C@H](CC(C)C)NC(=O)[C@H](CCC(N)=O)NC(=O)[C@@H](NC(=O)[C@H](CCC(=O)O)NC(=O)[C@H](CO)NC(=O)[C@@H](NC(=O)[C@@H](N)CO)C(C)C)[C@@H](C)CC)C(=O)N[C@H](C(=O)N[C@@H](CCC(=O)O)C(=O)N[C@@H](Cc1c[nH]c2ccccc12)C(=O)N[C@@H](CC(C)C)C(=O)N[C@@H](CCCNC(=N)N)C(=O)N[C@@H](CCCCN)C(=O)N[C@@H](CCCCN)C(=O)N[C@@H](CC(C)C)C(=O)N[C@@H](CCC(N)=O)C(=O)N[C@@H](CC(=O)O)C(=O)N[C@H](C(N)=O)C(C)C)C(C)C` [Arg^20→Nle] (H-SVSEIQLMHNLGKHLNSME[Nle]VEWLRKKLQDV-NH2; N-terminus assumed), in data set [1] (hPTH(1-31)NH2 analogs), the CD helical residues was 12. The IC50 on PTHR-delNt (hPTH(1-31)NH2 analogs) was found to be 10700 nM.

For the molecule `CC[C@H](C)[C@H](NC(=O)[C@H](CCC(=O)O)NC(=O)[C@H](CO)NC(=O)[C@@H](NC(=O)[C@H](C)N)C(C)C)C(=O)N[C@@H](CCC(N)=O)C(=O)N[C@@H](CC(C)C)C(=O)N[C@@H](CCSC)C(=O)N[C@@H](Cc1c[nH]cn1)C(=O)N[C@@H](CC(N)=O)C(=O)N[C@@H](CC(C)C)C(=O)NCC(=O)N[C@@H](CCCCN)C(=O)N[C@@H](Cc1c[nH]cn1)C(=O)N[C@@H](CC(C)C)C(=O)N[C@@H](CC(N)=O)C(=O)N[C@@H](CO)C(=O)N[C@@H](CCSC)C(=O)N[C@@H](CCCNC(=N)N)C(=O)N[C@@H](CCCNC(=N)N)C(=O)N[C@H](C(=O)N[C@@H](CC1CCCCC1)C(=O)N[C@@H](Cc1c[nH]c2ccccc12)C(=O)N[C@@H](CC(C)C)C(=O)N[C@@H](CCCNC(=N)N)C(=O)N[C@@H](CCCCN)C(=O)N[C@@H](CCCCN)C(=O)N[C@@H](CC(C)C)C(=O)N[C@@H](CCC(N)=O)C(=O)N[C@@H](CC(=O)O)C(=O)N[C@H](C(N)=O)C(C)C)C(C)C` [Glu^22→Cha] (H-AVSEIQLMHNLGKHLNSMRRV[Cha]WLRKKLQDV-NH2; N-terminus assumed), in data set [1] (setting [2]), the CD helical residues was 8. Also, the IC50 at PTHR-delNt (setting [2]) came to 126 ± 45 nM.

For `CC[C@H](C)[C@H](NC(=O)[C@H](CCC(=O)O)NC(=O)[C@H](CO)NC(=O)[C@@H](NC(=O)[C@H](C)N)C(C)C)C(=O)N[C@@H](CCC(N)=O)C(=O)N[C@@H](CC(C)C)C(=O)N[C@@H](CCSC)C(=O)N[C@@H](Cc1c[nH]cn1)C(=O)N[C@@H](CC(N)=O)C(=O)N[C@@H](CC(C)C)C(=O)NCC(=O)N[C@@H](CCCCN)C(=O)N[C@@H](Cc1c[nH]cn1)C(=O)N[C@@H](CC(C)C)C(=O)N[C@@H](CC(N)=O)C(=O)N[C@@H](CO)C(=O)N[C@@H](CCSC)C(=O)N[C@@H](CCCNC(=N)N)C(=O)N[C@@H](CCCNC(=N)N)C(=O)N[C@H](C(=O)N[C@@H](CCC(=O)O)C(=O)N[C@@H](Cc1c[nH]c2ccccc12)C(=O)N[C@@H](CC(C)C)C(=O)N[C@@H](CCCNC(=N)N)C(=O)N[C@@H](CC1CCCCC1)C(=O)N[C@@H](CCCCN)C(=O)N[C@@H](CC(C)C)C(=O)N[C@@H](CCC(N)=O)C(=O)N[C@@H](CC(=O)O)C(=O)N[C@H](C(N)=O)C(C)C)C(C)C` [Lys^26→Cha] (H-AVSEIQLMHNLGKHLNSMRRVEWLR[Cha]KLQDV-NH2; N-terminus assumed), the CD helical residues in data set [1] (setting [2]) was 6. For the same molecule, on PTHR-delNt (COS-7 membranes, versus the respective parent peptide), the “reduction (alteration) of binding affinity for PTHR-delNt relative to parent peptide” value was “approximately five- to seven-fold”. Also, the IC50 on PTHR-delNt (setting [2]) stood at 1870 ± 281 nM.
